This note sets out measurements from patent US7740906B2, “Wood preservatives” (Rohm and Haas Company, priority 2005, dated 2010).

Data set [1] in a line: Partitioning of DCOIT between polymer and supernatant of the treatment solution (centrifugation, HPLC). Type of data set: physicochemical. Conditions: treatment solution (1500 ppm DCOIT) centrifuged at 100,000 RPM for 20 minutes. Here is the method:
An aliquot of well-mixed sample was weighed into a one-ounce screw cap vial. Into the vial was pipetted 20 mL of methanol. The contents were sonicated for one hour in an ultrasonic bath. The sample was filtered through a 0.2 μm filter into an auto-sampler for analysis. The sample preparation was analyzed using a reverse phase HPLC procedure with UV detection according to the wood analysis method below.
A 3 g sample of as is treatment solution was centrifuged at 10,000 RPM for 10 minutes to precipitate any gelled polymer or other particulates. No solid precipitated. The treatment solution sample was further centrifuged at 100,000 RPM for 20 minutes to precipitated the polymer. The precipitated polymer plug and the clear supernatant were analyzed for DCOIT by HPLC.

A short description of data set [2]: Leaching assay (modified AWPA E11-97). It counts as physicochemical. The following applies: 1000 ppm, 3* (30% DCOIT in xylene); no polymer, no added surfactant. The text has this:
In order to provide long term protection, the preservative needs to “fix” in the wood and not deplete too rapidly by volatilization or by leaching when the wood gets wet. It might be expected that enhanced penetration or enhanced movement of the preservative deep into the wood during treatment might also lead to reduced fixation of the organic wood preservative. However, it was discovered that the polymers used to provide enhanced penetration also effectively fix the organic biocide in the wood. Two different measures of fixation were used, a dislodgeable residue assay and a very aggressive leaching assay. The dislodgeable residue assay measures how much preservative can be removed or dislodged from the surface of the wood. This is a good assay to determine how much preservative is available or has migrated to the surface of the wood. […] All of the polymers provided exceptional control of dislodgeable residues except for one water soluble polymer that probably redissolves under the assay conditions. Another measure of fixation is resistance to leaching. A very aggressive leaching assay, the AWPA E11-97 assay was used. DCOIT is considered a low leaching organic biocide as is seen by the cumulative % of DCOIT leached in Table 6 with the xylene formulation which doesn't contain any added surfactant. Nonionic surfactants can facilitate the leaching of organic preservatives. […]

As for `CCCCCCCCn1sc(Cl)c(Cl)c1=O` [DCOIT, 4,5-dichloro-2-n-octyl-4-isothiazolin-3-one], in data set [1], the “DCOIT in polymer plug” value is reported as 38,000 ppm and the DCOIT in supernatant is recorded as 34 ppm. Also, in data set [2], the “% Biocide Leached (cumulative)” value was determined as 4.4%.
